# Where a name gives a salt, the structure may show the parent alone.
# Key:
# Bcl-2 protein = Bcl-2 protein (histag-Bcl-2, UniProtKB P10415) (Homo sapiens (Human), UniProt P10415); test: Inhibition of Bcl-2 by the fluorescence polarisation technique; type: binding; conditions: fluorescence polarisation test; incubation for 2 hours; read-out: IC50 (nM) Bcl-2 FP
# Text: For partial inhibitors, the percentage fluorescence polarisation inhibition for a given concentration of the test compound is indicated.
# [1] = test system: RS4; 11 leukaemia cell line; test: In vitro cytotoxicity, Microculture Tetrazolium Assay (MTT); type: cell-based; conditions: 11 cells exposed for 48 hours
# Description: The cytotoxicity studies were carried out on the RS4; 11 leukaemia cell line and on H146 small Cell Lung Carcinoma cell line. The cells are distributed onto microplates and exposed to the test compounds for 48 hours. The cell viability is then quantified by a colorimetric assay, the Microculture Tetrazolium Assay (Cancer Res., 1987, 47, 939-942).
# Chain of Bcl-2 protein (P10415 whole entry): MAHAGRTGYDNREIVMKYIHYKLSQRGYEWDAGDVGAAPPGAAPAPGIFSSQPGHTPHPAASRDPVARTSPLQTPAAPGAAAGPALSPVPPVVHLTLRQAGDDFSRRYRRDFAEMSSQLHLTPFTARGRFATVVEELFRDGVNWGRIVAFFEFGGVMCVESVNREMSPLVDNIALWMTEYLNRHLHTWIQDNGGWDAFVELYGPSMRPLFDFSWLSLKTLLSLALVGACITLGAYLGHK
Compound,IC50 (Bcl-2 protein) [nM],IC50 ([1]; Homo sapiens) [nM],IC50 [1] [nM]
"Cc1c(C(=O)N(C)c2ccccc2)cc(-c2cc3c(cc2C(=O)N2Cc4ccccc4C[C@H]2CN2CCN(C)CC2)CN(C(=O)Oc2cccc(C(=O)O)c2)CC3)n1C [Example 735, 3-(6-{1,5-Dimethyl-4-[methyl(phenyl)carbamoyl]-1H-pyrrol-2-yl}-7-[(3S)-3-[(4-methylpiperazin-1-yl)methyl]-1,2,3,4-tetrahydroisoquinoline-2-carbonyl]-1,2,3,4-tetrahydroisoquinoline-2-carbonyloxy)benzoic acid]",12,> 150,
"C[C@@H]1Cc2ccccc2CN1C(=O)c1cc2c(cc1-c1cc(C(=O)N(C)c3ccc(O)cc3)c3n1CCCC3)CN(C(=O)CSc1ccccc1)C2 [Example 171, N-(4-Hydroxyphenyl)-N-methyl-3-{6-[(3R)-3-methyl-1,2,3,4-tetrahydroisoquinoline-2-carbonyl]-2-[2-(phenylsulfanyl)acetyl]-2,3-dihydro-1H-isoindol-5-yl}-5,6,7,8-tetrahydroindolizine-1-carboxamide]",5.1,63,
"C[C@@H]1Cc2ccccc2CN1C(=O)c1cc2c(cc1-c1cc(C(=O)N(c3ccccc3)c3ccc(O)cc3)c3n1CCCC3)CNC2 [Example 44, N-(4-Hydroxyphenyl)-3-{6-[(3R)-3-methyl-1,2,3,4-tetrahydroisoquinoline-2-carbonyl]-2,3-dihydro-1H-isoindol-5-yl}-N-phenyl-5,6,7,8-tetrahydroindolizine-1-carboxamide]",13,443,
"CCCCN(C(=O)c1cc(-c2cc3c(cc2C(=O)N2Cc4ccccc4C[C@H]2CN2CCOCC2)CN(C(=O)Cc2ccccc2)CC3)n(C)c1C)c1ccc(O)cc1 [Example 232, N-Butyl-N-(4-hydroxyphenyl)-1,2-dimethyl-5-{7-[(3S)-3-(morpholin-4-ylmethyl)-1,2,3,4-tetrahydroisoquinoline-2-carbonyl]-2-(2-phenylacetyl)-1,2,3,4-tetrahydroisoquinolin-6-yl}-1H-pyrrole-3-carboxamide]",2.9,11,
"Cc1c(C(=O)N(C)c2ccc(O)cc2)cc(-c2cc3c(cc2C(=O)N2Cc4ccccc4C[C@H]2CN2CCOCC2)CN(C(=O)Oc2ccc(Cl)c(Cl)c2)CC3)n1C [Example 573, 3,4-Dichlorophenyl 6-{4-[(4-hydroxyphenyl)(methyl)carbamoyl]-1,5-dimethyl-1H-pyrrol-2-yl}-7-[(3S)-3-(morpholin-4-ylmethyl)-1,2,3,4-tetrahydroisoquinoline-2-carbonyl]-1,2,3,4-tetrahydroisoquinoline-2-carboxylate]",18,43,
"C#Cc1ccc(OC(=O)N2CCc3cc(-c4cc(C(=O)N(C)c5ccc(O)cc5)c(C)n4C)c(C(=O)N4Cc5ccccc5C[C@H]4CN4CCOCC4)cc3C2)cc1 [Example 564, 4-Ethynylphenyl 6-{4-[(4-hydroxyphenyl)(methyl)carbamoyl]-1,5-dimethyl-1H-pyrrol-2-yl}-7-[(3S)-3-(morpholin-4-ylmethyl)-1,2,3,4-tetrahydroisoquinoline-2-carbonyl]-1,2,3,4-tetrahydroisoquinoline-2-carboxylate]",4.5,3.3,
"Cc1ccc(OC(=O)N2CCc3cc(-c4cc(C(=O)N(c5ccc(O)cc5)c5cc(C#N)n(C)c5C)c(C)n4C)c(C(=O)N4Cc5ccccc5C[C@H]4CN4CCOCC4)cc3C2)cc1 [Example 805, Tolyl 6-[4-[(5-cyano-1,2-dimethyl-1H-pyrrol-3-yl)-(4-hydroxyphenyl)carbamoyl]-1,5-dimethyl-1H-pyrrol-2-yl]-7-[(3S)-3-(morpholinomethyl)-3,4-dihydro-1H-isoquinoline-2-carbonyl]-3,4-dihydro-1H-isoquinoline-2-carboxylate hydrochloride]",3.1,,0.12
"Cc1c(C(=O)N(C)c2ccccc2)cc(-c2cc3c(cc2C(=O)N2Cc4ccccc4C[C@H]2CN2CCOCC2)CN(C(=O)Oc2ccc4[nH]ccc4c2)CC3)n1C [Example 631, 1H-Indol-5-yl 6-{1,5-dimethyl-4-[methyl(phenyl)carbamoyl]-1H-pyrrol-2-yl}-7-[(3S)-3-(morpholin-4-ylmethyl)-1,2,3,4-tetrahydroisoquinoline-2-carbonyl]-1,2,3,4-tetrahydroisoquinoline-2-carboxylate]",5.2,8.2,
"C[C@@H]1Cc2ccccc2CN1C(=O)c1cc2c(cc1-c1cc(C(=O)N(C)c3ccc(O)cc3)c3n1CCCC3)CN(C(=O)OCc1ccccc1)C2 [Example 62, Benzyl 5-{1-[(4-hydroxyphenyl)(methyl)carbamoyl]-5,6,7,8-tetrahydroindolizin-3-yl}-6-[(3R)-3-methyl-1,2,3,4-tetrahydroisoquinoline-2-carbonyl]-2,3-dihydro-1H-isoindole-2-carboxylate]",20,113,
"C[C@@H]1Cc2ccccc2CN1C(=O)c1cc2c(cc1-c1cc(C(=O)N(C)c3ccc(O)cc3)c3n1CCCC3)CN(CCC1CCCCC1)C2 [Example 29, 3-[2-(2-Cyclohexylethyl)-6-[(3R)-3-methyl-1,2,3,4-tetrahydroisoquinoline-2-carbonyl]-2,3-dihydro-1H-isoindol-5-yl]-N-(4-hydroxyphenyl)-N-methyl-5,6,7,8-tetrahydroindolizine-1-carboxamide]",28,> 150,
"Cc1c(C(=O)N(C)c2ccc(O)cc2)cc(-c2cc3c(cc2C(=O)N2Cc4ccccc4C[C@H]2C)CN(C(=O)Nc2ccccc2)CC3)n1C [Example 253, 6-{4-[(4-Hydroxyphenyl)(methyl)carbamoyl]-1,5-dimethyl-1H-pyrrol-2-yl}-7-[(3R)-3-methyl-1,2,3,4-tetrahydroisoquinoline-2-carbonyl]-N-phenyl-1,2,3,4-tetrahydroisoquinoline-2-carboxamide]",5.2,22,
"Cc1c(C(=O)N(C)c2ccc(O)cc2)cc(-c2cc3c(cc2C(=O)N2Cc4ccccc4C[C@H]2C)CN(C(=O)Oc2ccc(N(C)CCN(C)C)cc2)CC3)n1C [Example 474, 4-{[2-(Dimethylamino)ethyl](methyl)amino}phenyl 6-{4-[(4-hydroxyphenyl)(methyl)carbamoyl]-1,5-dimethyl-1H-pyrrol-2-yl}-7-[(3R)-3-methyl-1,2,3,4-tetrahydroisoquinoline-2-carbonyl]-1,2,3,4-tetrahydroisoquinoline-2-carboxylate]",4.5,2.6,
"Cc1c(C(=O)N(C)c2ccc(O)cc2)cc(-c2cc3c(cc2C(=O)N2Cc4ccccc4C[C@H]2CN2CCN(C)CC2)CN(C(=O)Oc2ccccc2)CC3)n1C [Example 214, Phenyl 6-{4-[(4-hydroxyphenyl)(methyl)carbamoyl]-1,5-dimethyl-1H-pyrrol-2-yl}-7-[(3S)-3-[(4-methylpiperazin-1-yl)methyl]-1,2,3,4-tetrahydroisoquinoline-2-carbonyl]-1,2,3,4-tetrahydroisoquinoline-2-carboxylate]",2.7,4.1,
"Cc1c(C(=O)N(C)c2ccc(O)cc2)cc(-c2cc3c(cc2C(=O)N2Cc4ccccc4C[C@H]2CN2CCOCC2)CN(C(=O)/C=C/c2ccccc2)CC3)n1C [Example 131, N-(4-Hydroxyphenyl)-N,1,2-trimethyl-5-{7-[(3S)-3-(morpholin-4-ylmethyl)-1,2,3,4-tetrahydroisoquinoline-2-carbonyl]-2-[(2E)-3-phenylprop-2-enoyl]-1,2,3,4-tetrahydroisoquinolin-6-yl}-1H-pyrrole-3-carboxamide]",4,11,
"C[C@@H]1Cc2ccccc2CN1C(=O)c1cc2c(cc1-c1cc(C(=O)N(C)c3ccc(O)cc3)c3n1CCCC3)CCN(C(=O)N1CC(c3ccccc3)C1)C2 [Example 84, N-(4-Hydroxyphenyl)-N-methyl-3-{7-[(3R)-3-methyl-1,2,3,4-tetrahydroisoquinoline-2-carbonyl]-2-(3-phenylazetidine-1-carbonyl)-1,2,3,4-tetrahydroisoquinolin-6-yl}-5,6,7,8-tetrahydroindolizine-1-carboxamide]",4.9,33,
"COc1cccc(CCC(=O)N2CCc3cc(-c4cc(C(=O)N(C)c5ccc(O)cc5)c(C)n4C)c(C(=O)N4Cc5ccccc5C[C@H]4CN4CCOCC4)cc3C2)c1 [Example 135, N-(4-Hydroxyphenyl)-5-{2-[3-(3-methoxyphenyl)propanoyl]-7-[(3S)-3-(morpholin-4-ylmethyl)-1,2,3,4-tetrahydroisoquinoline-2-carbonyl]-1,2,3,4-tetrahydroisoquinolin-6-yl}-N,1,2-trimethyl-1H-pyrrole-3-carboxamide]",8.4,99,
"Cc1ccc(OC(=O)N2CCc3cc(-c4cc(C(=O)N(C)c5ccc(O)cc5)c5n4CCCC5)c(C(=O)N4Cc5ccccc5C[C@H]4CN4CCOCC4)cc3C2)cc1 [Example 98, 4-Methylphenyl 6-{1-[(4-hydroxyphenyl)(methyl)carbamoyl]-5,6,7,8-tetrahydroindolizin-3-yl}-7-[(3S)-3-(morpholin-4-ylmethyl)-1,2,3,4-tetrahydroisoquinoline-2-carbonyl]-1,2,3,4-tetrahydroisoquinoline-2-carboxylate hydrochloride]",3.8,1.8,
"Cc1c(C(=O)N(C)c2ccc(O)cc2)cc(-c2cc3c(cc2C(=O)N2Cc4ccccc4C[C@H]2C)CN(C(=O)NCc2ccccc2)C3)n1C [Example 111, N-Benzyl-5-{4-[(4-hydroxyphenyl)(methyl)carbamoyl]-1,5-dimethyl-1H-pyrrol-2-yl}-6-[(3R)-3-methyl-1,2,3,4-tetrahydroisoquinoline-2-carbonyl]-2,3-dihydro-1H-isoindole-2-carboxamide]",8.4,64,
